Here are results for one compound from patent US11167012B2, “Peptide inhibition of CCR3-mediated diseases or conditions” (The Board of Trustees of the University of Illinois, priority 2015, dated 2021).

Structures are written as SMILES. Several values for one entry are separate records, joined by “and”; a condition that tells them apart may be missing. Equal entries are not always repeated. Where a SMILES comes first, the peptide text is derived from it. The star is where a group is joined. X1 = NC(=O)CCOCCOCCOCCOCCOCCOCCOCCOCCOCCOCCOCCOCCOCCOCCOCCOCCOCCOCCOCCOCCOCCOCCOCCOCCOCCOCCOCCOCCN*

The target of one assay is T1, CCR3 (Homo sapiens, UniProt P51677).
T1 sequence (P51677 1-355): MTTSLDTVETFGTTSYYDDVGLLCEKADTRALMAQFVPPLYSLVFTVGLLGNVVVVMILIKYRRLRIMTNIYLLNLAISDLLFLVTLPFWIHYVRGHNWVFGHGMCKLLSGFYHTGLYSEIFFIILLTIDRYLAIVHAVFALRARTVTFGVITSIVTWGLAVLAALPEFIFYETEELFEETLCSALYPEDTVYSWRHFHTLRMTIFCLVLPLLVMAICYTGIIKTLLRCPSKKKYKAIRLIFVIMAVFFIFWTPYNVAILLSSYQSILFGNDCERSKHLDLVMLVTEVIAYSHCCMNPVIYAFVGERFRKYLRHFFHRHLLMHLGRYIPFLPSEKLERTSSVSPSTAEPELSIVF
Nature of the assay: Chemotaxis assay (Transwell), blood eosinophils. It is filed as cell-based. The note with it: for IC90: blood eosinophils, 4 hours. Also on record: host or cells: AML14.3D10-CCR3 (eosinophilic myelocytic cell line, kept under G418). The source says:
Blood eosinophils were purified from anti-coagulated blood drawn from mild allergic asthmatic subjects. Peripheral blood was subjected to density gradient centrifugation over FICOLL-PAQUE® Plus (GE Healthcare, Pittsburgh, Pa.) media to obtain a pellet containing erythrocytes and granulocytes. After erythrocyte lysis via hypotonic shock, eosinophils were purified by negative selection using a cocktail of antibody-conjugated magnetic beads against non-eosinophils (Miltenyi Biotec, Auburn, Calif.). The eosinophils were resuspended in X-VIVO 10 without phenol red. The purity and viability of the eosinophils obtained was routinely >97% as assessed by Hema III and trypan blue staining, respectively.
Cell migration was determined using a 96-well TRANSWELL® system (Corning, Tewksbury, Mass.). Briefly, 200 μl chemoattractant or control medium was added to the lower chamber while 100 μl cells were added to the upper chamber. The two chambers were separated by a polycarbonate filter with 5 μm pores. For AML14.3D10-CCR3 cells, 2×10^5 cells/well were resuspended in RPMI-1640+0.1% BSA and allowed to migrate for 4 hours at 37° C. […] Migrated cells were counted using a Beckman QUANTA SC flow cytometer. All experiments were performed in duplicate. Checkerboard analysis was done to distinguish chemotaxis from chemokinesis.
Primary eosinophils and the stable CCR3+eosinophilic myelocytic cell line, AML14.3D10-CCR3 (Daugherty, et al. (1996) J. Exp. Med. 183:2349-2354) undergo CCR3-mediated chemotaxis induced by multiple chemokines including eotaxin/CCL11, RANTES/CCL5, MCP-4/CCL13, and MEC/CCL28 (Daugherty, et al. (1996) J. Exp. Med. 183:2349-2354; Pan, et al. (2000) J. Immunol. 165:2943-2949). […] In addition, R3-2-1 inhibits chemotaxis of both AML14.3D10-CCR3 and blood eosinophils induced by CCL11/Eotaxin-1, CCL24/Eotaxin-2, and CCL26/Eotaxin-3 in a dose-dependent fashion (Table 3).

For assay [1], the system named is eosinophil recruitment into the lung airspaces. Nature of the assay: Triple antigen (DRA) allergic mouse asthma model. It is filed as in vivo. On the procedure: Treatment of mice with CCR3 R3-2-1 peptide nanoparticles, scrambled R3-2-3 peptide nanoparticles or vehicle controls was administered i.v. by retro-orbital injection starting on day 11, one day before intranasal DRA allergen challenges on days 12-14 to assess its effect on inhibiting the recruitment of eosinophils into the lung airspaces and airways. Blood, bronchoalveolar lavage (BAL) fluid and lung tissue were harvested on day 15.
In the triple antigen driven allergic mouse model, mice are sensitized and airway-challenged with a combination of aeroallergens including Dust mite, Ragweed and Aspergillus sp. (DRA; Goplen, et al. (2009) J. Allergy Clin. Immunol. 123:925-932). This model recapitulates many of the pathologic features of human asthma, including eosinophil recruitment into the lung and airspaces, eosinophil degranulation, increased expression of Th2 cytokines, airway hyperreactivity (AHR), and airway remodeling (goblet cell metaplasia and mucus overproduction), and airway smooth muscle hyperplasia and subepithelial fibrosis. Using this model, the effectiveness of R3-2-1 in blocking allergen-induced eosinophil recruitment into the airways and development of airway pathologies in mice was evaluated. It was determined whether systemic (i.v.) administration of R3-2-1 nanoparticles has the capacity to inhibit eotaxin-mediated eosinophil recruitment into the airways. Mice subjected to the triple antigen (DRA) protocol were treated with R3-2-1, scrambled peptide (R3-2-3) and vehicle controls via i.v. administration following antigen sensitization, 24 hours prior to the first allergen challenge on Day 11 of the protocol (FIG. 7), and for i.v. routes, repeated before each subsequent allergen challenge.

For the compound `CC[C@H](C)[C@H](NC(=O)[C@H](Cc1c[nH]c2ccccc12)NC(=O)[C@H](Cc1ccccc1)NC(=O)[C@@H]1CCCN1C(=O)[C@H](CC(C)C)NC(=O)[C@@H](NC(=O)[C@@H](NC(=O)[C@H](CC(C)C)NC(=O)[C@H](Cc1ccccc1)NC(=O)[C@H](CC(C)C)NC(=O)[C@@H](N)CC(C)C)C(C)C)[C@@H](C)O)C(=O)N[C@@H](Cc1c[nH]cn1)C(=O)N[C@@H](Cc1ccc(O)cc1)C(=O)N[C@H](C(=O)N[C@@H](CCCNC(=N)N)C(=O)NCC(=O)N[C@@H](Cc1c[nH]cn1)C(=O)N[C@@H](CC(N)=O)C(=O)N[C@@H](Cc1c[nH]c2ccccc12)C(=O)N[C@H](C(=O)N[C@@H](Cc1ccccc1)C(=O)NCC(=O)N[C@@H](Cc1c[nH]cn1)C(=O)N[C@@H](CC(=O)O)C(=O)N[C@@H](CC(=O)O)C(=O)N[C@@H](CC(=O)O)C(=O)NCCOCCOCCOCCOCCOCCOCCOCCOCCOCCOCCOCCOCCOCCOCCOCCOCCOCCOCCOCCOCCOCCOCCOCCOCCOCCOCCOCCOCCC(N)=O)C(C)C)C(C)C` [Peptide R3-2-1] (H-LLFLVTLPFWIHYVRGHNWVFGHDDD-X1; N-terminus assumed), the “inhibition of chemotaxis of blood eosinophils” value on CCR3 (2, 10 or 50 μM) was “similarly able to inhibit chemotaxis of blood eosinophils”. Further, on CCR3 (CCL11-, CCL24-, CCL26-induced chemotaxis, summary of Table 3), the “IC50 for inhibition of chemotaxis, in words” value is recorded as “low nanomolar range”. In addition, the IC90 (in general, the concentration needed for an effect of 90%) on CCR3 (chemotaxis to CCL11/Eotaxin-1 (12 nM)) amounted to 760 ± 100 nM; at CCR3 (chemotaxis to CCL24/Eotaxin-2 (20 nM)), 730 ± 100 nM; at CCR3 (chemotaxis to CCL26/Eotaxin-3 (100 nM)), 1100 ± 150 nM. Besides, the “% Inhibition of eosinophil recruitment (BAL fluid)” value in assay [1] (3 mg/kg i.v.) was 19.54 ± 14.81%; in assay [1] (6 mg/kg i.v.), 44.24 ± 9.33%; in assay [1] (9 mg/kg i.v.), 53.03 ± 10.82%; in assay [1] (12 mg/kg i.v., compared to vehicle and R3-2-3 controls), 69.3% and 69.33 ± 4.20%. Moreover, the “IC50 for inhibition of total number of eosinophils recruited into the lung airspaces” value in assay [1] (i.v.) worked out at 8.16 mg/kg. The “total number of eosinophils recruited into the lung airspaces” value in assay [1] (i.v., BAL fluid) is reported as “significantly inhibits”.
